{
  "source": "patent US10188617B2",
  "about": "“Modulation of cellular DNA repair activity to intercept malignancy” (THE BOARD OF TRUSTEES OF THE LELAND STANFORD JUNIOR …, priority 2013, dated 2019)",
  "tested_on": "BER of ODD in SUM149PT cells",
  "assay": "High-throughput chemical screen with cell-based DNA repair assay (oxidatively damaged GFP reporter, host-cell reactivation);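 further: SUM149PT cells pretreated 24 h with compound, then given photodynamically oxidized adenoviral GFP reporter, 24 h host-cell reactivation, GFP read as repair, undamaged reporter positive and damaged reporter negative control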",
  "details": "for EC50: read-out: EC50 (image analysis), dose-response increase in GFP expression by imaging, 20 μM to 0.3 μM two-fold dilutions; for Priority score (summed priority score): sum of assigned priority scores, range 1-10, 10 = highest priority; for % BER (High) (image analysis): % BER activity relative to negative control at high concentration",
  "note": "Counter-ions that a name gives are not always drawn.",
  "data": [
    {"smiles": "Cl.NC(CO)C(=O)NNCc1ccc(O)c(O)c1O", "note": "(racemic) [Benserazide hydrochloride, DL-Serine 2-(2,3,4-trihydroxybenzyl)hydrazide hydrochloride]", "values": [
      {"measurement": "EC50", "result": 22.1, "unit": "µM"},
      {"measurement": "Priority score (summed priority score)", "result": 7}
    ]},
    {"smiles": "COC(=O)C(N)Cc1ccc(Cl)cc1.Cl", "note": "(racemic) [DL-p-Chlorophenylalanine methyl ester hydrochloride]", "values": [
      {"measurement": "EC50", "result": 25.8, "unit": "µM"},
      {"measurement": "Priority score (summed priority score)", "result": 7}
    ]},
    {"smiles": "CN(C)CCC(c1ccc(Br)cc1)c1ccccn1.O=C(O)/C=C\\C(=O)O", "note": "(single isomer, unassigned; (+)) [(+)-Brompheniramine maleate]", "values": [
      {"measurement": "% BER (High) (image analysis)", "setting": "imaging", "result": 29.4, "unit": "%"},
      {"measurement": "EC50", "result": 27.5, "unit": "µM"},
      {"measurement": "Priority score (summed priority score)", "result": 7}
    ]},
    {"smiles": "Cl.NCCc1ccc(S(=O)(=O)F)cc1", "note": "[4-(2-Aminoethyl)benzenesulfonyl fluoride hydrochloride]", "values": [
      {"measurement": "% BER (High) (image analysis)", "setting": "imaging", "result": 25.1, "unit": "%"},
      {"measurement": "EC50", "result": 98.7, "unit": "µM"},
      {"measurement": "Priority score (summed priority score)", "result": 7}
    ]},
    {"smiles": "O=c1[nH]c(=O)n([C@H]2C[C@H](O)[C@@H](CO)O2)cc1Br", "note": "[5-Bromo-2′-deoxyuridine]", "values": [
      {"measurement": "GFP signal in image montage", "setting": "preliminary screen, highest concentration tested 18 uM", "result": "visible signal similar to that of SUM149PTcells infected with undamaged adGFP"},
      {"measurement": "percentage of GFP-positive cells (normalized to Hoechst 33342-positive cells)", "setting": "preliminary screen, imaging", "result": "dose-response increase in the percentage of GFP-positive cells"},
      {"measurement": "GFP intensity (normalized to Hoechst 33342-intensity)", "setting": "preliminary screen, plate reading", "result": "dose-response increase in GFP intensity"},
      {"measurement": "EC50", "result": 7.27, "unit": "µM"},
      {"measurement": "Priority score (summed priority score)", "result": 10}
    ]},
    {"smiles": "N=c1ccn2c(n1)O[C@H]1[C@H](O)[C@@H](CO)O[C@H]12", "note": "[Ancitabine hydrochloride]", "values": [
      {"measurement": "EC50", "result": 19.8, "unit": "µM"},
      {"measurement": "Priority score (summed priority score)", "result": 10}
    ]},
    {"smiles": "CC(C)COCC(CN(Cc1ccccc1)c1ccccc1)N1CCCC1", "note": "(stereo not drawn) [Bepridil hydrochloride]", "values": [
      {"measurement": "EC50", "result": 22.7, "unit": "µM"},
      {"measurement": "Priority score (summed priority score)", "result": 10}
    ]},
    {"smiles": "CC[N+](C)(C)Cc1ccccc1Br", "note": "[Bretylium tosylate]", "values": [
      {"measurement": "EC50", "result": 26.9, "unit": "µM"},
      {"measurement": "Priority score (summed priority score)", "result": 7}
    ]},
    {"smiles": "CNc1ccc2oc(C[C@H]3O[C@@]4(CC[C@H]3C)O[C@H]([C@H](C)C(=O)c3ccc[nH]3)[C@H](C)C[C@H]4C)nc2c1C(=O)O", "note": "[Calcimycin]", "values": [
      {"measurement": "EC50", "result": 5.14, "unit": "µM"},
      {"measurement": "Priority score (summed priority score)", "result": 7}
    ]},
    {"smiles": "C[C@@]12C(=O)OC(=O)[C@]1(C)[C@H]1CC[C@@H]2O1", "note": "[Cantharidin]", "values": [
      {"measurement": "Priority score (summed priority score)", "result": 10}
    ]},
    {"smiles": "C[C@H](CS)C(=O)N1CCC[C@H]1C(=O)O", "note": "[Captopril]", "values": [
      {"measurement": "EC50", "result": 18.8, "unit": "µM"},
      {"measurement": "Priority score (summed priority score)", "result": 7}
    ]},
    {"smiles": "CN(C)CCOC(=O)COc1ccc(Cl)cc1", "note": "[Centrophenoxine hydrochloride]", "values": [
      {"measurement": "EC50", "result": 20.4, "unit": "µM"},
      {"measurement": "Priority score (summed priority score)", "result": 7}
    ]},
    {"smiles": "Clc1ccccc1C(c1ccccc1)(c1ccccc1)n1ccnc1", "note": "[Clotrimazole]", "values": [
      {"measurement": "Priority score (summed priority score)", "result": 7}
    ]},
    {"smiles": "CC(=O)O[C@]1(C(C)=O)CC[C@H]2[C@@H]3C=C(Cl)C4=CC(=O)[C@@H]5C[C@@H]5[C@]4(C)[C@H]3CC[C@@]21C", "note": "[Cyproterone acetate]", "values": [
      {"measurement": "EC50", "result": 27.8, "unit": "µM"},
      {"measurement": "Priority score (summed priority score)", "result": 7}
    ]},
    {"smiles": "Cl.Nc1ccn([C@@H]2O[C@H](CO)[C@@H](O)[C@@H]2O)c(=O)n1", "note": "[Cytosine-1-beta-D-arabinofuranoside hydrochloride]", "values": [
      {"measurement": "% BER (High) (image analysis)", "setting": "imaging", "result": 18.3, "unit": "%"},
      {"measurement": "EC50", "result": 22.8, "unit": "µM"},
      {"measurement": "Priority score (summed priority score)", "result": 10}
    ]},
    {"smiles": "O=C1c2c(O)ccc(O)c2C(=O)c2c(NCCNCCO)ccc(NCCNCCO)c21", "note": "[Mitoxantrone]", "values": [
      {"measurement": "EC50", "result": 13.2, "unit": "µM"},
      {"measurement": "Priority score (summed priority score)", "result": 7}
    ]}
  ]
}
